Legend:
Experiment in all cases: relative viability (nuclei count vs DMSO), 5 days (fraction); higher = more cells survive
NCI-H1666 = test system: NCI-H1666
In short: (§1)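 Relative viability is defined as nuclei in treated wells over nuclei in vehicle wells. Duplicate plates were run and medians reported. Lung cancer cell lines in 1536-well plates were dosed by pin tool one day after seeding, with one drug or with a fixed anchor-drug dose plus five library-drug doses (not always all listed) in √10 steps, and nuclei were counted after 5 days.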

NCI-H1915 = test system: NCI-H1915
In short: as §1

NCI-H596 = test system: NCI-H596
In short: as §1

NCI-H2342 = test system: NCI-H2342
In short: as §1

NCI-H23 = test system: NCI-H23
In short: as §1

PC-3 [JPC-3] = test system: PC-3 [JPC-3]
In short: as §1

NCI-H520 = test system: NCI-H520
In short: as §1

NCI-H1437 = test system: NCI-H1437
In short: as §1

NCI-H1650 = test system: NCI-H1650
In short: as §1

NCI-H460 = test system: NCI-H460
In short: as §1

EKVX = test system: EKVX
In short: as §1

LCLC-97TM1 = test system: LCLC-97TM1
In short: as §1

NCI-H727 = test system: NCI-H727
In short: as §1

NCI-H1975 = test system: NCI-H1975
In short: as §1

NCI-H322M = test system: NCI-H322M
In short: as §1

NCI-H522 = test system: NCI-H522
In short: as §1

NCI-H838 = test system: NCI-H838
In short: as §1

NCI-H647 = test system: NCI-H647
In short: as §1

SK-LU-1 = test system: SK-LU-1
In short: as §1

NCI-H358 = test system: NCI-H358
In short: as §1

NCI-H441 = test system: NCI-H441
In short: as §1

NCI-H661 = test system: NCI-H661
In short: as §1

SMILES: Cc1cn(-c2cc(NC(=O)c3ccc(C)c(Nc4nccc(-c5cccnc5)n4)c3)cc(C(F)(F)F)c2)cn1 [Nilotinib] + Cc1cc(Nc2cc(N3CCN(C)CC3)nc(Sc3ccc(NC(=O)C4CC4)cc3)n2)n[nH]1 [Tozasertib] (partner 0.1 µM)
- relative viability (NCI-H1666; first compound 0.001 µM): 0.493
- relative viability (NCI-H1666; first compound 0.003162 µM): 0.566
- relative viability (NCI-H1666; first compound 0.01 µM): 0.531
- relative viability (NCI-H1666; first compound 0.03162 µM): 0.518
- relative viability (NCI-H1666; first compound 0.1 µM): 0.556
- relative viability (NCI-H1915; first compound 0.001 µM): 0.366
- relative viability (NCI-H1915; first compound 0.003162 µM): 0.484
- relative viability (NCI-H1915; first compound 0.01 µM): 0.457
- relative viability (NCI-H1915; first compound 0.03162 µM): 0.32
- relative viability (NCI-H1915; first compound 0.1 µM): 0.311
- relative viability (NCI-H596; first compound 0.001 µM): 0.799
- relative viability (NCI-H596; first compound 0.003162 µM): 0.972
- relative viability (NCI-H596; first compound 0.01 µM): 1.01
- relative viability (NCI-H596; first compound 0.03162 µM): 0.619
- relative viability (NCI-H596; first compound 0.1 µM): 0.68
- relative viability (NCI-H2342; first compound 0.001 µM): 0.501
- relative viability (NCI-H2342; first compound 0.003162 µM): 0.561
- relative viability (NCI-H2342; first compound 0.01 µM): 0.45
- relative viability (NCI-H2342; first compound 0.03162 µM): 0.494
- relative viability (NCI-H2342; first compound 0.1 µM): 0.603
- relative viability (NCI-H23; first compound 0.001 µM): 0.303
- relative viability (NCI-H23; first compound 0.003162 µM): 0.329
- relative viability (NCI-H23; first compound 0.01 µM): 0.283
- relative viability (NCI-H23; first compound 0.03162 µM): 0.247
- relative viability (NCI-H23; first compound 0.1 µM): 0.226
- relative viability (PC-3 [JPC-3]; first compound 0.001 µM): 0.736
- relative viability (PC-3 [JPC-3]; first compound 0.003162 µM): 0.932
- relative viability (PC-3 [JPC-3]; first compound 0.01 µM): 0.91
- relative viability (PC-3 [JPC-3]; first compound 0.03162 µM): 0.621
- relative viability (PC-3 [JPC-3]; first compound 0.1 µM): 0.426
- relative viability (NCI-H520; first compound 0.001 µM): 0.486
- relative viability (NCI-H520; first compound 0.003162 µM): 0.46
- relative viability (NCI-H520; first compound 0.01 µM): 0.428
- relative viability (NCI-H520; first compound 0.03162 µM): 0.462
- relative viability (NCI-H520; first compound 0.1 µM): 0.386
- relative viability (NCI-H1437; first compound 0.001 µM): 0.355
- relative viability (NCI-H1437; first compound 0.003162 µM): 0.499
- relative viability (NCI-H1437; first compound 0.01 µM): 0.4
- relative viability (NCI-H1437; first compound 0.03162 µM): 0.304
- relative viability (NCI-H1437; first compound 0.1 µM): 0.317
- relative viability (NCI-H1650; first compound 0.001 µM): 0.329
- relative viability (NCI-H1650; first compound 0.003162 µM): 0.355
- relative viability (NCI-H1650; first compound 0.01 µM): 0.324
- relative viability (NCI-H1650; first compound 0.03162 µM): 0.324
- relative viability (NCI-H1650; first compound 0.1 µM): 0.256
- relative viability (NCI-H460; first compound 0.001 µM): 0.152
- relative viability (NCI-H460; first compound 0.03162 µM): 0.1
- relative viability (NCI-H460; first compound 0.1 µM): 0.0459
- relative viability (EKVX; first compound 0.001 µM): 0.368
- relative viability (EKVX; first compound 0.003162 µM): 0.341
- relative viability (EKVX; first compound 0.01 µM): 0.35
- relative viability (EKVX; first compound 0.03162 µM): 0.252
- relative viability (EKVX; first compound 0.1 µM): 0.261
- relative viability (LCLC-97TM1; first compound 0.001 µM): 0.236
- relative viability (LCLC-97TM1; first compound 0.003162 µM): 0.254
- relative viability (LCLC-97TM1; first compound 0.01 µM): 0.161
- relative viability (LCLC-97TM1; first compound 0.03162 µM): 0.182
- relative viability (LCLC-97TM1; first compound 0.1 µM): 0.217
- relative viability (NCI-H727; first compound 0.001 µM): 0.599
- relative viability (NCI-H727; first compound 0.003162 µM): 0.624
- relative viability (NCI-H727; first compound 0.01 µM): 0.503
- relative viability (NCI-H727; first compound 0.03162 µM): 0.437
- relative viability (NCI-H727; first compound 0.1 µM): 0.599
- relative viability (NCI-H1975; first compound 0.001 µM): 0.212
- relative viability (NCI-H1975; first compound 0.003162 µM): 0.224
- relative viability (NCI-H1975; first compound 0.01 µM): 0.205
- relative viability (NCI-H1975; first compound 0.03162 µM): 0.154
- relative viability (NCI-H1975; first compound 0.1 µM): 0.218
- relative viability (NCI-H322M; first compound 0.001 µM): 0.471
- relative viability (NCI-H322M; first compound 0.003162 µM): 0.427
- relative viability (NCI-H322M; first compound 0.01 µM): 0.492
- relative viability (NCI-H322M; first compound 0.03162 µM): 0.456
- relative viability (NCI-H322M; first compound 0.1 µM): 0.548
- relative viability (NCI-H522; first compound 0.001 µM): 0.484
- relative viability (NCI-H522; first compound 0.003162 µM): 0.605
- relative viability (NCI-H522; first compound 0.01 µM): 0.521
- relative viability (NCI-H522; first compound 0.03162 µM): 0.558
- relative viability (NCI-H522; first compound 0.1 µM): 0.619
- relative viability (NCI-H838; first compound 0.001 µM): 0.219
- relative viability (NCI-H838; first compound 0.003162 µM): 0.298
- relative viability (NCI-H838; first compound 0.01 µM): 0.294
- relative viability (NCI-H838; first compound 0.03162 µM): 0.228
- relative viability (NCI-H838; first compound 0.1 µM): 0.221
- relative viability (NCI-H647; first compound 0.001 µM): 0.147
- relative viability (NCI-H647; first compound 0.003162 µM): 0.227
- relative viability (NCI-H647; first compound 0.01 µM): 0.164
- relative viability (NCI-H647; first compound 0.03162 µM): 0.143
- relative viability (NCI-H647; first compound 0.1 µM): 0.139
- relative viability (SK-LU-1; first compound 0.001 µM): 0.304
- relative viability (SK-LU-1; first compound 0.003162 µM): 0.292
- relative viability (SK-LU-1; first compound 0.01 µM): 0.287
- relative viability (SK-LU-1; first compound 0.03162 µM): 0.293
- relative viability (SK-LU-1; first compound 0.1 µM): 0.286
- relative viability (NCI-H358; first compound 0.001 µM): 0.0908
- relative viability (NCI-H358; first compound 0.003162 µM): 0.0985
- relative viability (NCI-H358; first compound 0.01 µM): 0.0881
- relative viability (NCI-H358; first compound 0.03162 µM): 0.101
- relative viability (NCI-H358; first compound 0.1 µM): 0.116
- relative viability (NCI-H441; first compound 0.001 µM): 0.448
- relative viability (NCI-H441; first compound 0.003162 µM): 0.482
- relative viability (NCI-H441; first compound 0.01 µM): 0.44
- relative viability (NCI-H441; first compound 0.03162 µM): 0.429
- relative viability (NCI-H441; first compound 0.1 µM): 0.37
- relative viability (NCI-H661; first compound 0.001 µM): 0.346
- relative viability (NCI-H661; first compound 0.003162 µM): 0.357
- relative viability (NCI-H661; first compound 0.01 µM): 0.364
- relative viability (NCI-H661; first compound 0.03162 µM): 0.382
- relative viability (NCI-H661; first compound 0.1 µM): 0.355

Reference: the supplement of paper PMC10307832
